Test system: MRC5
Assay: Cytotoxicity in human MRC5 cells
Type: cell-based

Structure (SMILES): N#Cc1cccc(-c2ccc(C(=O)O)o2)c1
- IC50: > 100 µM

Reference: ChEMBL document CHEMBL4616680, “Shedding X-ray Light on the Role of Magnesium in the Activity of Mycobacterium tuberculosis Salicylate Synthase (MbtI) for Drug Design” (J Med Chem, 2020)
